Experimental data from patent publication US20230002368A1, “USE OF COMPOUNDS FOR THE PREVENTION AND/OR TREATMENT OF ANKYLOSING SPONDYLITIS, AND CORRESPONDING COMPOSITIONS” (NUVAMID SA, priority 2019, published 2023).

Assays:
[1] = system: TgA86 mice as a model for ankylosing spondylitis; experiment: TgA86 mouse model of ankylosing spondylitis: joint score and tail score; type: in vivo; conditions: male TgA86 mice, NMN 185 mg/kg intraperitoneally
Protocol: (§1) The efficacy of the use of NMN (compound IE) according to the invention was evaluated in 3-week-old TgA86 mice as a model for ankylosing spondylitis. TgA86 mice develop peripheral and axial AS with an incidence of 100%. In these mice, the peripheral form is manifested by joint welling and paw deformation, whilst the axial form is clinically characterised by curved tails and pelvic ankylosis.
(§2) In brief, male TgA86 mice were divided into two groups of 10 mice each: (i) a control group, in which the mice were treated with vehicle, i.e. a 0.9% NaCl solution (10 mL/kg), marked ‘Vehicle’; […] a group of mice treated with NMN (185 mg/kg), marked ‘NMN’. The solutions were injected intraperitoneally.
The mice were treated for 10 weeks under the conditions set forth supra. The joint score, tail score, and weight of the mice were measured every week. The joint score was determined in accordance with table 3 infra:
The tail score is an indicator that allows for an evaluation of the axial form of AS and pelvic ankylosis (see https://www.biomedcode.com/wp-content/uploads/2019/07/TgA86-white-paper.pdf). The tail score was determined in accordance with table 4 infra: […]

[2] = Weight and tolerance of treated TgA86 mice; type: in vivo; conditions: male TgA86 mice, NMN 185 mg/kg intraperitoneally, 10 weeks
Protocol: as §1, §2
The mice were treated for 10 weeks under the conditions set forth supra. The joint score, tail score, and weight of the mice were measured every week. The joint score was determined in accordance with table 3 infra: […]

Compound: NC(=O)c1ccc[n+]([C@@H]2O[C@H](COP(=O)([O-])O)[C@@H](O)[C@H]2O)c1 [NMN, nicotinamide mononucleotide]
- average joint score (peripheral AS) ([1]; 10 weeks, vs vehicle control group (FIG. 2)): reduction in the joint score of the mice compared to the control group
- average tail score (axial AS, pelvic ankylosis) ([1]; 10 weeks, vs vehicle control group (FIG. 3)): reduces the tail score in the mice treated compared to the control group
- significance of the joint score reduction over time ([1]; T-test vs vehicle (FIG. 2)): particularly significant starting in the 5th week of treatment
- significance of the tail score reduction over time ([1]; T-test vs vehicle (FIG. 3)): significant starting in the second week of treatment
- tolerance / toxicity in the animals [2]: well tolerated by the mice and does not cause any distress or toxicity in the animals
- development of the average weight of mice ([2]; measured every week, vs vehicle (FIG. 1)): follows a similar course of development to that of the control group
